# Test results reported in US20240358681A1, “METHODS OF USE OF PPAR AGONIST COMPOUNDS AND PHARMACEUTICAL COMPOSITIONS THEREOF” (Mitobridge, Inc., priority 2021, published 2024).
# “And” between values parts separate entries of the source, which are not always exact repeats. Equal values may be shown once. “Also recorded” adds a separate entry of the source.
# What was measured:
# Format in all cases: cell-based, human
# KSS fibroblasts = experiment: Seahorse mitochondrial fatty acid oxidation
# Protocol: (§1) FAO was measured using a Seahorse XF96 (Seahorse Biosciences). MELAS m.3243A>G fibroblasts, KSS fibroblasts, and MERRF tRNA-Lys 8344 cybrids were treated with DMSO or Compound (I) 8 hours after seeding into flasks. 24 hours after initial treatment, media was changed to complete media with DMSO or Compound (I) with reduced glucose (1.1 mM for primary fibroblasts and 5.5 mM for cybrids) and 0.5 mM carnitine. After 48 hours after initial treatment, cells were plated into 96-well cell culture microplates at a density of 40,000 cells per well. FAO assay was initiated 8 hours after plating.
# (§2) 200 μL of KHB was added to the blank wells and 200 μL KHB mixed with control BSA (final 0.074 mM) or BSA-palmitate (final 0.074 mM BSA, 500 μM palmitate was added to the appropriate wells. Stress test components compounds are added in the following sequential order; 1) Oligomycin, 2) FCCP, and 3) Rotenone and Antimycin A for final concentrations of 2.5 μM, 6 μM and 1 μM, respectively. Oxidation of palmitate was assessed using the same ratio as LHON/Leigh fibroblasts.
# [1] = tested on: MELAS m.3243A>G fibroblasts; experiment: Seahorse mitochondrial fatty acid oxidation
# Protocol: as §1, §2
# [2] = tested on: MERRF tRNA-Lys 8344 cybrids; experiment: Seahorse mitochondrial fatty acid oxidation; conditions: MERRF cybrid cell line, FIG. 4B
# Protocol: as §1, §2
# [3] = tested on: fibroblasts from patients harboring mitochondrial mutations (Leigh Syndrome/LHON, MELAS, KSS) and MERRF cybrid cell line; experiment: Gene expression analysis in cells harboring mitochondrial mutations; conditions: for ACADVL expression: FIG. 3C
# From the text: Leigh syndrome/Leber's hereditary optic neuropathy (LHON) cells were isolated from a patient diagnosed with both Leigh syndrome and LHON. This subject had two point mutations; one in the mtDNA-encoded ND4 gene (mutation 11778G>A) and one in the mtDNA encoded ND6 gene (mutation 14484T>C) in the NADH dehydrogenase complex. m.3243A>G MELAS (Mitochondrial encephalomyopathy, lactic acidosis, and stroke-like episodes) cells were isolated from a patient harboring the m.3243A>G mutation in the mtDNA-encoded tRNA-leucine gene. Kearns Sayre Syndrome (KSS) fibroblast cells were isolated from a patient harboring the 5 kilobase (Kb) common deletion and were obtained from the Coriell Institue along with a control fibroblast cell line. MERRF m.8344A>G osteosarcoma transmitochondrial cybrids were acquired from the Moraes lab (Masucci, J. P., M. P. Schon Ea Fau-King, and M. P. King, Point mutations in the mitochondrial tRNA(Lys) gene: implications for pathogenesis and mechanism. (0300-8177)).
# MELAS m.3243A>G fibroblasts were grown in Eagle's minimum essential media (EMEM) supplemented with 10% heat inactivated FBS, 1 mM sodium pyruvate, 1× non-essential amino acids, 2 mM 1-glutamine, and 100 μg/ml of uridine. KSS fibroblasts were grown in EMEM supplemented with 15% heat inactivated FBS, 1× non-essential amino acids, and 100 μg/ml of uridine. Leigh/LHON syndrome fibroblast cell lines were grown in Dulbecco's modified eagle medium (DMEM) supplemented with 1 mM sodium pyruvate, 10% HI FBS, and 100 μg/ml of uridine. MERRF tRNA-LYS 8344 cybrid cells were grown in DMEM supplemented with 10% heat inactivated FBS, 1 mM sodium pyruvate and 100 μg/ml of uridine.
# All cell lines with the exception of LHON/Leigh Syndrome fibroblasts were plated at a density of 50 k/well in 6 well plates. Compound (I) or 0.1% DMSO was added 8 hours later in complete media. Treatment media or vehicle media were refreshed 24 hours later for a total treatment time of 48 hours. LHON/Leigh Syndrome fibroblasts were plated and treated in the same manner but for a total treatment time of 24 hours.
# mTotal RNA was isolated using NucleoSpin® kits (Macherey-Nagel) as per manufacturer's protocol. One microgram of total RNA was used to generate cDNA using the High-Capacity cDNA Reverse Transcription Kit (Applied Biosystems).
# MELAS m.3243A>G fibroblasts, KSS Fibroblast and MERRF tRNA-Lys 8344 cybrid gene expression was performed using 5 ng cDNA and 300 nM of primers were mixed with water and iQ SYBR Green master mix, loaded in 384-well qPCR plates, and subsequently analyzed using a BioRad CFX384 Real-Time PCR Detection System. Fold change was calculated as ΔCt on a per sample basis was calculated as Ct (Gene of interest)−Ct (Average of reference genes). The ΔΔCt was then calculated as ΔCt (experimental sample)−Average ΔCt (control group). Fold change was calculated as 2^−ΔΔCT. LHON/Leigh Syndrome fibroblast cDNA was mixed with dH2O and SYBR Green master mix and 1 μM of primers were dispensed into the sample source plates and primer source plates in 384-well plates, respectively. Reactions were loaded into SmartChip (WaferGen Bio-systems) with Multisample Nanodispenser and the chip was analyzed in the SmartChip Cycler.
# Raw expression data was exported from software and graphed after processing with reference genes and normalized against control using QBase software. To obtain normalized values, the calibrated normalized relative quantities (CNRQ) values of each sample were divided by the average CNRQ for all vehicle treated samples in order to make expression relative to the control group.
structure (smiles),measurement,setting,value
"Cc1cnc(-c2ccc(C(F)(F)F)cc2)n1Cc1ccccc1OCCC[C@@H](C)CC(=O)O [Compound (I), (R)-3-Methyl-6-(2-((5-methyl-2-(4-(trifluoromethyl)phenyl)-1H-imidazol-1-yl)methyl)-phenoxy)hexanoic acid]","fatty acid-mediated OXPHOS, dose response","KSS fibroblasts; KSS patient fibroblasts, two biological replicates, FIG. 4B",trending dose response
same,increase in fatty acid mediated OXPHOS,"KSS fibroblasts; KSS, 30 nM",thirty percent or greater
same,restoration to the fatty acid-mediated OXPHOS of healthy donor fibroblasts,"KSS fibroblasts; KSS, 30 nM",near complete restoration
same,"fatty acid-mediated OXPHOS, dose response","[1]; MELAS patient fibroblasts, two biological replicates, FIG. 4B",trending dose response
same,increase in fatty acid mediated OXPHOS,"[1]; MELAS, 30 nM",thirty percent or greater
same,restoration to the fatty acid-mediated OXPHOS of healthy donor fibroblasts,"[1]; MELAS, 30 nM",partial
same,fatty acid mediated OXPHOS response,[2]; 30 nM,less pronounced
same,"fatty acid mediated OXPHOS, dose response",[2],dose-dependent trend
same,PDK4 transcript increase,"[3]; 24 or 48 hour treatment, across all four cell lines tested, FIG. 3B",10 to 50 fold and 10 to 100 fold
same,ANGPTL4 induction (marker of target engagement),"[3]; 24 or 48 hours treatment, FIG. 3A",large induction; also recorded: greatly induced
same,ACADVL expression,"[3]; MELAS and MERRF cells, n=2, no statistical comparison",showed induction
same,CPT1A transcript induction,"[3]; across all cell lines tested, FIG. 3D",approximately 2 fold
same,SLC25A20 expression,"[3]; across all four cell lines tested, FIG. 3E",induced
same,"Genes involved in the import, packaging and catabolism of fatty acids into the mitochondria for OXPHOS","[3]; across four cell lines with mitochondrial mutations, FIG. 3C-3E",upregulated
same,ACADVL expression,[3]; two of the lines tested,significantly upregulated
